Measurements from patent US10793892B2, “Method for detecting the presence of expanded spectrum β-lactamase-producing bacteria in a sample” (INSERM (INSTITUT NATIONAL DE LA SANTE ET DE LA RECHERCHE …, priority 2011, dated 2020).

What was measured:
[1] = system: E. coli; assay: ESBL NDP test using cultured strains; type: biochemical, Escherichia coli; parameters: key: (+) and (−) referred to color change being, red to yellow or unchanged, respectively; (+) and (−) referred to color change being, red to yellow or unchanged, respectively
Procedure: (§1) Strains were isolated on Mueller-Hinton agar (Biorad, Marnes-la-Coquette, France) and incubated at 37° C. for 16 h to 24 h before performing the NDP rapid ESBL test as follows. One calibrated inoculated loop (10 μl) of the tested strain was resuspended in 150 μl of 20 mM Tris-HCl lysis buffer previously distributed in Microbead tubes (Ultraclean Microbial DNA isolation kit Bead Tubes, MO BIO Laboratories, Carlsbad, USA). Mechanical lysis of bacteria was performed by strong agitation of Microbead tubes using a vortex adapter (MO BIO Laboratories) for 30 min at room temperature. This bacterial suspension was centrifuged at 10,000×g at room temperature for 5 min. Thirty μl of the supernatant was mixed in a well of a 96-well tray with 100 μl of a 1 ml solution made of 3 mg of purified cefotaxime sodium salt (Sigma-Aldrich, Saint-Quentin-Fallavier, France) in a pH 7.8 phenol red solution. […]. The phenol red solution was made by taking 2 ml of a concentrated pH 8 phenol solution (made from a mixture of phenol red 0.5% in distilled water) to which 16.6 ml of distilled water was added. The pH value was then adjusted to a 7.8 value by adding drops of a 1 N NaOH solution. Mixture of the phenol red solution and the enzymatic suspension being tested was incubated at 37° C. for 30 min. Similarly, culture extracts were analyzed in wells containing cefotaxime and tazobactam (4 mg/ml). Other concentrations of tazobactam and other ß-lactamase inhibitors were tested giving less clear results (data not shown). […] This definition of test positivity will be applied throughout the study.

[2] = system: P. mirabilis; assay: ESBL NDP test using cultured strains; type: biochemical, Proteus mirabilis; parameters: key: (+) and (−) referred to color change being, red to yellow or unchanged, respectively; (+) and (−) referred to color change being, red to yellow or unchanged, respectively
Procedure: as §1

CO/N=C(\C(=O)N[C@@H]1C(=O)N2C(C(=O)O)=C(COC(C)=O)CS[C@H]12)c1csc(N)n1 [CTX, cefotaxime]
−: ESBL NDP Test from: Colonies ([1]; E. coli 09.123, TEM-133) | ESBL NDP Test from: Colonies ([1]; E. coli (Belgium), ACC-1) | Test (color change) ([1]; E. coli ACC-1, n=1, first line) | ESBL NDP Test from: Colonies ([1]; E. coli BG 1106 5698, Penicillinase) | ESBL NDP Test from: Colonies ([1]; E. coli BG 1106 6252, Wild-type) | ESBL NDP Test from: Colonies ([1]; E. coli BG 1106 6367, Wild-type) | ESBL NDP Test from: Colonies ([1]; E. coli BG 1106 7202, Penicillinase) | ESBL NDP Test from: Colonies ([1]; E. coli BG 1107 8873, Wild-type) | ESBL NDP Test from: Colonies ([1]; E. coli BG 1108 6157, Penicillinase) | Test (color change) ([1]; E. coli DHA-1, n=1) | ESBL NDP Test from: Colonies ([1]; E. coli GOU, DHA-1) | Test (color change) ([1]; E. coli SHV-12, n=1) | Test (color change) ([1]; E. coli TEM-1 penicillinase, n=5) | Test (color change) ([1]; E. coli TEM-12, n=1) | Test (color change) ([1]; E. coli TEM-29, n=2) | Test (color change) ([1]; E. coli TEM-133, n=1) | Test (color change) ([1]; E. coli Wild-type, no resistance, n=5) | ESBL NDP Test from: Colonies ([2]; P. mirabilis 09.177, TEM-21) | Test (color change) ([2]; P. mirabilis ACC-1, n=1) | ESBL NDP Test from: Colonies ([2]; P. mirabilis BIK, ACC-1)
+: ESBL NDP Test from: Colonies ([1]; E. coli 09.11, TEM-52) | ESBL NDP Test from: Colonies ([1]; E. coli 09.124, TEM-52) | ESBL NDP Test from: Colonies ([1]; E. coli 09.129, SHV-12) | ESBL NDP Test from: Colonies ([1]; E. coli 09.173, SHV-12) | ESBL NDP Test from: Colonies ([1]; E. coli 09.187, SHV-2a) | ESBL NDP Test from: Colonies ([1]; E. coli 09.193, SHV-12) | ESBL NDP Test from: Colonies ([1]; E. coli 09.207, SHV-2a) | ESBL NDP Test from: Colonies ([1]; E. coli 09.225, TEM-52) | ESBL NDP Test from: Colonies ([1]; E. coli 09.40, TEM-52) | ESBL NDP Test from: Colonies ([1]; E. coli 09.41, SHV-12) | ESBL NDP Test from: Colonies ([1]; E. coli 09.66, TEM-52) | ESBL NDP Test from: Colonies ([1]; E. coli 09.73, TEM-52) | ESBL NDP Test from: Colonies ([1]; E. coli 09.79, SHV-12) | ESBL NDP Test from: Colonies ([1]; E. coli 09.92, TEM-52) | ESBL NDP Test from: Colonies ([1]; E. coli 10.104, CTX-M-1) | ESBL NDP Test from: Colonies ([1]; E. coli 10.11, CTX-M-14) | ESBL NDP Test from: Colonies ([1]; E. coli 10.121, CTX-M-2) | ESBL NDP Test from: Colonies ([1]; E. coli 10.124, CTX-M-14) | ESBL NDP Test from: Colonies ([1]; E. coli 10.130, CTX-M-3) | ESBL NDP Test from: Colonies ([1]; E. coli 10.13, CTX-M-14) | ESBL NDP Test from: Colonies ([1]; E. coli 10.132, CTX-M-2) | ESBL NDP Test from: Colonies ([1]; E. coli 10.16, CTX-M-15) | ESBL NDP Test from: Colonies ([1]; E. coli 10.178, CTX-M-27) | ESBL NDP Test from: Colonies ([1]; E. coli 10.198, CTX-M-27) | ESBL NDP Test from: Colonies ([1]; E. coli 10.204, CTX-M-27) | ESBL NDP Test from: Colonies ([1]; E. coli 10.207, CTX-M-27) | ESBL NDP Test from: Colonies ([1]; E. coli 10.23, CTX-M-2) | ESBL NDP Test from: Colonies ([1]; E. coli 10.32, CTX-M-14) | ESBL NDP Test from: Colonies ([1]; E. coli 10.33, CTX-M-15) | ESBL NDP Test from: Colonies ([1]; E. coli 10.36, CTX-M-1) | ESBL NDP Test from: Colonies ([1]; E. coli 10.38, CTX-M-1) | ESBL NDP Test from: Colonies ([1]; E. coli 10.43, CTX-M-15) | ESBL NDP Test from: Colonies ([1]; E. coli 10.46, CTX-M-14) | ESBL NDP Test from: Colonies ([1]; E. coli 10.49, CTX-M-15) | ESBL NDP Test from: Colonies ([1]; E. coli 10.53, CTX-M-9) | ESBL NDP Test from: Colonies ([1]; E. coli 10.64, CTX-M-32) | ESBL NDP Test from: Colonies ([1]; E. coli 10.73, CTX-M-27) | ESBL NDP Test from: Colonies ([1]; E. coli 10.74, CTX-M-15) | ESBL NDP Test from: Colonies ([1]; E. coli 10.95, CTX-M-1) | ESBL NDP Test from: Colonies ([1]; E. coli A7R5, SHV-3) | Test (color change) ([1]; E. coli ACC-1, n=1, second line) | ESBL NDP Test from: Colonies ([1]; E. coli C5O52, CTX-M-28) | Test (color change) ([1]; E. coli CMY-2, n=1) | Test (color change) ([1]; E. coli CTX-M-1, n=16) | Test (color change) ([1]; E. coli CTX-M-2, n=3) | Test (color change) ([1]; E. coli CTX-M-3, n=1) | Test (color change) ([1]; E. coli CTX-M-9, n=1) | Test (color change) ([1]; E. coli CTX-M-14, n=15) | Test (color change) ([1]; E. coli CTX-M-15, n=46) | Test (color change) ([1]; E. coli CTX-M-27, n=6) | Test (color change) ([1]; E. coli CTX-M-28, n=1) | Test (color change) ([1]; E. coli CTX-M-32, n=1) | Test (color change) ([1]; E. coli CTX-M-97, n=1) | ESBL NDP Test from: Colonies ([1]; E. coli Ec13 SYD, CMY-2) | ESBL NDP Test from: Colonies ([1]; E. coli LOU, ACC-1) | Test (color change) ([1]; E. coli SHV-2a, n=3) | Test (color change) ([1]; E. coli SHV-3, n=1) | Test (color change) ([1]; E. coli SHV-12, n=6) | Test (color change) ([1]; E. coli TEM-52, n=8) | Test (color change) ([1]; E. coli VEB-1, n=1) | ESBL NDP Test from: Colonies ([2]; P. mirabilis 09.128, TEM-52) | Test (color change) ([2]; P. mirabilis CTX-M-14, n=1) | Test (color change) ([2]; P. mirabilis CTX-M-15, n=1) | Test (color change) ([2]; P. mirabilis PER-1, n=1) | Test (color change) ([2]; P. mirabilis TEM-21, n=1) | Test (color change) ([2]; P. mirabilis TEM-52, n=1)
